Measurements: US20230278972A1, “SUBSTITUTED HALOALKYL SULFONANILIDE HERBICIDES” (FMC Corporation, priority 2020, published 2023)

Columns and labels:
Format in all cases: in vivo
[1] = tested on: Pigweed, Palmer (palmer amaranth, palmer pigweed, Amaranthus palmeri); experiment: Test A1 preemergence, Pigweed, Palmer
Procedure, shortened: (§1)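 Both timings started from seed in a loam-sand blend. Preemergence pots got a directed soil application immediately; postemergence pots were sprayed when seedlings had one or two leaves and stood 2–10 cm. Each compound was prepared in a non-phytotoxic solvent plus surfactant.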

[2] = tested on: Ryegrass, Italian (Italian ryegrass, Lolium multiflorum); experiment: Test A1 preemergence, Ryegrass, Italian
Procedure, shortened: as §1

[3] = tested on: soybean (Glycine max); experiment: Test A1 preemergence, soybean
Procedure, shortened: as §1

[4] = tested on: blackgrass (Alopecurus myosuroides); experiment: Test A1 postemergence, blackgrass; conditions: Postemergence, 0 to 100 scale (0 no effect, 100 complete control)
Procedure, shortened: (§2)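 Pre: seeds in loam/sand blend, directed soil spray. Post: potted plants, same soil, 2–10 cm, 1–2 leaf stage. Chemicals in non-phytotoxic solvent + surfactant for both.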

[5] = tested on: corn (Zea mays); experiment: Test A1 postemergence, corn; conditions: Postemergence
Procedure, shortened: as §1

[6] = tested on: Foxtail, Giant (giant foxtail, Setaria faberi); experiment: Test A1 postemergence, Foxtail, Giant; conditions: Postemergence
Procedure, shortened: as §2

[7] = tested on: kochia (Bassia scoparia); experiment: Test A1 postemergence, kochia; conditions: Postemergence
Procedure, shortened: as §2

[8] = tested on: Ryegrass, Italian (Italian ryegrass, Lolium multiflorum); experiment: Test A1 postemergence, Ryegrass, Italian; conditions: Postemergence
Procedure, shortened: as §2

[9] = tested on: soybean (Glycine max); experiment: Test A1 postemergence, soybean; conditions: Postemergence
Procedure, shortened: as §2

[10] = tested on: galium (catchweed bedstraw, Galium aparine); experiment: Test A1 postemergence, galium; conditions: Postemergence
Procedure, shortened: as §2

[11] = 31 g ai/ha, 0 to 100 scale (0 no effect, 100 complete control)
[12] = 125 g ai/ha, 0 to 100 scale, 0 no effect, 100 complete control
[13] = 31 g ai/ha, 0 to 100 scale (0 no effect, 100 complete control), 10 days

Row | SMILES | Plant response rating, Pigweed, Palmer [1, 11] | Plant response rating, Pigweed, Palmer [1, 12] | Plant response rating, Ryegrass, Italian [2, 11] | Plant response rating, Ryegrass, Italian [2, 12] | Plant response rating, Soybean [3, 11] | Plant response rating, Soybean [3, 12] | Plant response rating, Blackgrass ([4]; 31 g ai/ha, 10 days) | Plant response rating, Blackgrass ([4]; 125 g ai/ha) | Plant response rating, Corn [5, 13] | Plant response rating, Corn ([5]; 125 g ai/ha, 0 to 100 scale) | Plant response rating, Foxtail, Giant [6, 13] | Plant response rating, Foxtail, Giant ([6]; 125 g ai/ha, 0 to 100 scale) | Plant response rating, Kochia [7, 13] | Plant response rating, Kochia ([7]; 125 g ai/ha, 0 to 100 scale) | Plant response rating, Ryegrass, Italian [8, 13] | Plant response rating, Ryegrass, Italian ([8]; 125 g ai/ha, 0 to 100 scale) | Plant response rating, Soybean [9, 13] | Plant response rating, Soybean ([9]; 125 g ai/ha, 0 to 100 scale) | Plant response rating, Galium [10, 13] | Plant response rating, Galium ([10]; 125 g ai/ha, 0 to 100 scale)
1 | COC1CCCN(C(=O)c2cc(NS(=O)(=O)C(F)(F)F)c(Cl)c(F)c2C)C1 (stereo not shown) [Compound 334] | 20 | 70 | 30 | 50 | 0 | 30 | 0 | 0 | 0 | 0 | 0 | 0 | 10 | 40 | 0 | 0 | 20 | 40 | 60 | 60
2 | Cc1c(NS(=O)(=O)C(F)(F)F)cc(C2=NOC3CCCC23)c(C)c1C (stereo not shown) [Compound 335] | 100 | 100 | 0 | 60 | 30 | 40 | 0 | 10 | 0 | 0 | 0 | 0 | 10 | 60 | 0 | 30 | 0 | 30 | 50 | 80
3 | Cc1c(C2=NO[C@@H]3CCC[C@H]23)cc(N(COC(=O)C(C)(C)C)S(=O)(=O)C(F)(F)F)c(C)c1C [Compound 336, [[(Trifluoromethyl)sulfonyl][2,3,4-trimethyl-5-[(3aR,6aR)-3a,5,6,6a-tetrahydro-4H-cyclopent[d]isoxazol-3-yl]phenyl]amino]methyl 2,2-dimethylpropanoate] | 60 | 100 | 30 | 30 | 0 | 0 | 0 | 0 | 0 | 0 | 0 | 40 | 70 | 80 | 0 | 0 | 20 | 50 | 60 | 100
4 | C#CCN(C)C(=O)c1cc(NS(=O)(=O)C(F)(F)F)c(Cl)c(F)c1C [Compound 337] | 40 | 100 | 30 | 100 | 40 | 90 | 0 | 30 | 30 | 40 | 0 | 90 | 40 | 70 | 0 | 20 | 50 | 70 | 70 | 100
5 | COCC1CC(c2cc(N(COC(=O)C(C)(C)C)S(=O)(=O)C(F)(F)F)c(C)cc2C)=NO1 (stereo not shown) [Compound 338] | 0 | 40 | 30 | 30 | 0 | 20 | 0 | 0 | 10 | 30 | 10 | 80 | 10 | 60 | 0 | 10 | 10 | 40 | 50 | 50
6 | CCOC1CC(c2cc(N(COC(=O)C(C)(C)C)S(=O)(=O)C(F)(F)F)c(C)cc2C)=NO1 (stereo not shown) [Compound 339] | 30 | 100 | 30 | 50 | 0 | 0 | 0 | 30 | 0 | 30 | 0 | 50 | 30 | 70 | 0 | 50 | 0 | 10 | 30 | 50
7 | Cc1cc(C)c(C2=NOC3(C)CCCC23)cc1NS(=O)(=O)C(F)(F)F (stereo not shown) [Compound 340] | 60 | 100 | 50 | 100 | 40 | 90 | 0 | 20 | 20 | 50 | 10 | 50 | 20 | 50 | 0 | 20 | 50 | 60 | 50 | 80
8 | Cc1cc(C)c(N(COC(=O)C(C)(C)C)S(=O)(=O)C(F)(F)F)cc1C1=NOC2(C)CCCC12 (stereo not shown) [Compound 341] | 0 | 20 | 0 | 40 | 0 | 0 | 0 | 0 | 0 | 0 | 0 | 20 | 20 | 30 | 0 | 0 | 40 | 50 | 50 | 80
